{"source": "patent US20060148712A1", "about": "“Monocyte chemoattractant activity of galectin-3” (priority 2000, published 2006)", "key": {"[1]": {"target": "T1, CXCR-4 (Homo sapiens, UniProt P61073)", "T1 construct": "Chemokine receptors expressed on monocytes include CCR-1, CCR-2, CCR-5, and CXCR-4; endogenous in cells", "T1 sequence (P61073 whole entry)": "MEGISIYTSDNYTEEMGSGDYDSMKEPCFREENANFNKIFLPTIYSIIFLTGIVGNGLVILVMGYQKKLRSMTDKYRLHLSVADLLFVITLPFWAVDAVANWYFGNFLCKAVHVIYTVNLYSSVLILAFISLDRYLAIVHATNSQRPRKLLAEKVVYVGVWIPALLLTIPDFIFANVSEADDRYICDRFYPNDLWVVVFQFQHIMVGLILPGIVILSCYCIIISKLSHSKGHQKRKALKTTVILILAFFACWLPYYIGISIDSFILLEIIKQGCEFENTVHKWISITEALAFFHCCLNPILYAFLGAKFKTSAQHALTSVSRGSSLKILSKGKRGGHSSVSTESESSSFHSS", "experiment": "Immunoprecipitation and immunoblotting with specific antibodies", "type": "binding"}, "[2]": {"tested_on": "neutrophils", "experiment": "Neutrophil migration", "type": "cell-based"}, "[3]": {"target": "T2, CCR-2 (Homo sapiens, UniProt P41597)", "T2 construct": "Chemokine receptors expressed on monocytes include CCR-1, CCR-2, CCR-5, and CXCR-4; endogenous in cells", "T2 sequence (P41597 whole entry)": "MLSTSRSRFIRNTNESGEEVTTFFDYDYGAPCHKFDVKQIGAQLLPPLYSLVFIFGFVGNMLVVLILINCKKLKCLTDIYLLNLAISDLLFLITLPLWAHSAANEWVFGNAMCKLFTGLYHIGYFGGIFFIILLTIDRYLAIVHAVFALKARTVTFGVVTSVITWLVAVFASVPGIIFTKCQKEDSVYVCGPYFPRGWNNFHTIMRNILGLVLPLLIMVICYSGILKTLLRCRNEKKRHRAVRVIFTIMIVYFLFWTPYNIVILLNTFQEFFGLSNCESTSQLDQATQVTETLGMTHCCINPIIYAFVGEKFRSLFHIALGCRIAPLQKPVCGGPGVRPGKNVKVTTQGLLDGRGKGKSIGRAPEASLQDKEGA", "experiment": "Immunoprecipitation and immunoblotting with specific antibodies", "type": "binding"}, "[4]": {"tested_on": "eosinophils", "experiment": "Eosinophil attraction in vitro (not shown)", "type": "cell-based"}, "[5]": {"tested_on": "cultured human peripheral blood macrophages", "experiment": "Migration of cultured human peripheral blood macrophages in vitro", "type": "cell-based", "conditions": "1 μM galectin-3; p<0.05, n=3", "description": "(§1) Human macrophages were obtained by culturing peripheral blood monocytes in vitro for 7 days as previously described (Fantuzzi, et al., Blood 94:875-83 (1999)). Human alveolar macrophages were obtained from bronchoalveolar lavage (BAL) fluid according to a previously described protocol (Sugimoto et al, Am. Rev. Respir. Dis. 139:1329-35 (1989)). The purity of the macrophages was over 90% and the viability was over 99%.\n(§2) Monocyte migration was examined by using 96-well micro Boyden chambers with 5 μm-pore size filters (Neuro Probe, Inc., Gaithersburg, Md.) as described previously (Falk, et al., J. Immunol. Meth. 33:239-47 (1980)), Chertov, et al., J. Biol. Chem. 271:2935-40 (1996)). Briefly, after the indicated concentrations of galectin-3 in RPMI 1640 were applied to the lower chambers, purified monocyte suspensions (2.5-5.0×10^4/well) were applied to the upper chambers. After incubation of the chambers for 1 h in a humidified incubator at 5% CO2 and 37° C., the filters were washed once with PBS and processed with Wright stain. The number of monocytes on the bottom side of the filters was counted in 5 to 10 high-power fields. Monocyte migration was calculated from the average numbers of the counted cells and expressed as % of input cells in a well."}, "[6]": {"tested_on": "human alveolar macrophages", "experiment": "Migration of human alveolar macrophages in vitro", "type": "cell-based", "conditions": "two separate experiments; bell-shaped dose-response curves", "description": "as §1, §2"}, "[7]": {"target": "T3, CCR-1 (Homo sapiens, UniProt P32246)", "T3 construct": "Chemokine receptors expressed on monocytes include CCR-1, CCR-2, CCR-5, and CXCR-4; endogenous in cells", "T3 sequence (P32246 1-355)": "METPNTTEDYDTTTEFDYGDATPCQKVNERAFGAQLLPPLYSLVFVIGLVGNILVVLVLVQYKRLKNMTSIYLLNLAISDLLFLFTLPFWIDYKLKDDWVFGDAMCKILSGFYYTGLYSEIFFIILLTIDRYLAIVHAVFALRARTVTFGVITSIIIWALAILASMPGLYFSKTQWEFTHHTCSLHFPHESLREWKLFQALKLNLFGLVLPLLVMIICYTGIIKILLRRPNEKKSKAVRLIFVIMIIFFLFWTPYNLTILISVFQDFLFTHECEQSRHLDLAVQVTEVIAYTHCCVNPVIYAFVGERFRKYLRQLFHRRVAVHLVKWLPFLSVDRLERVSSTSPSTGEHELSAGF", "experiment": "Immunoprecipitation and immunoblotting with specific antibodies", "type": "binding"}, "[8]": {"tested_on": "lymphocytes", "experiment": "Lymphocyte migration in vitro", "type": "cell-based"}, "[9]": {"tested_on": "human peripheral blood monocytes", "experiment": "Monocyte migration assay in vitro (96-well micro Boyden chamber)", "type": "cell-based", "description": "Human monocytes were purified from venous blood of normal volunteers essentially as described previously (Nakagawara, et al., J. Clin. Invest. 68:1243-53 (1981)). In brief, after erythrocytes were sedimented by addition of 6% dextran saline solution (I part to 5 parts heparinized blood), the leukocytes were collected, washed twice, and resuspended in Ca^2+ and Mg^2+-free HBSS containing 5% autologous serum. Mononuclear cells were acquired by centrifugation of the leukocyte suspension on Ficoll Paque at 1,500 rpm for 15 min. The cells were resuspended in RPMI 1640 containing 10% autologous serum and allowed to adhere to sterile tissue culture plates for 30 min in a humidified incubator at 5% CO2 and 37° C. After incubation, non-adherent cells were removed by washing the plates three times with PBS at 37° C. […] To detach and harvest the adhered monocytes, 1 mM EDTA-PBS containing 5% serum was added and the plates were incubated on ice for 30 min. The monocytes were washed twice with HBSS and resuspended in RPMI 1640 with 0.1% autologous serum for the migration assay. The viability of monocytes was determined by trypan blue exclusion and was more than 98%. In some experiments, monocytes were purified according to another method using a Percoll discontinuous gradient described previously (Chuluyan & Issekutz, J. Clin. Invest. 92:2768-77 (1993)).\nas §2\nIn assays using inhibitory reagents, the purified monocytes were pretreated with or without the indicated concentrations of B2C10 (Liu, et al., Biochemistry 35:[…] (1996)) or anti-DNP IgG1 (Liu, et al., J. Immunol. 124:2728-31 (1980)) as an isotype-matched control mAb, galectin-3C, or PTX at 37° C. for 30 min. Then the cells were applied to the upper chambers in the presence of these inhibitors at the same concentrations used in the pretreatment. In the assays using lactose and sucrose, the sugars were added to the lower chambers at the initiation of the migration assay."}, "[10]": {"tested_on": "human monocytes", "experiment": "Measurement of Ca2+ influx in monocytes (Indo-1 AM)", "type": "cell-based", "procedure": "Intracellular concentrations of Ca^2+ were measured by using Indo-1 AM according to a previously described method (Lopez, et al., Cytometry 10:165-73 (1989)). Purified monocytes were resuspended in HBSS containing 1 mM Ca^2+, 1 mM Mg^2+, and 5% autologous serum, and incubated with […] Indo-1 AM for 45 min at 37° C. The cells were washed once, resuspended in the same buffer, and stimuli and inhibitors were added at the time points specified in the Figure Legends. Intracellular Ca^2+ concentration was measured by monitoring light emission at 405 and 485 nm to an excitation wavelength of 355 nm, using an AMINCO-Bowman series 2 luminescence spectrometer (Rochester, N.Y.)."}}, "data": [{"substance": "galectin-3: Recombinant human galectin-3, a 26 kDa beta-galactoside-binding protein (lectin)", "values": [{"measurement": "Interaction with chemokine receptor", "setting": "[1]", "value": "Neither have interactions between galectin-3 and these four chemokine receptors been detected"}, {"measurement": "Concentration required for maximum migration of neutrophils compared with monocytes", "setting": "[2]", "value": "Lower concentrations"}, {"measurement": "Interaction with chemokine receptor", "setting": "[3]", "value": "Neither have interactions between galectin-3 and these four chemokine receptors been detected"}, {"measurement": "Attraction of eosinophils in vitro", "setting": "[4]", "value": "does not attract eosinophils"}, {"measurement": "Enhancement of macrophage migration over that induced by the control medium", "setting": "[5]", "value": 190, "unit": "%"}, {"measurement": "Migration of human alveolar macrophages", "setting": "[6]", "value": "migrated towards galectin-3"}, {"measurement": "Interaction with chemokine receptor", "setting": "[7]", "value": "Neither have interactions between galectin-3 and these four chemokine receptors been detected"}, {"measurement": "Migration of lymphocytes in vitro", "setting": "[8]", "value": "does not induce migration of lymphocytes"}, {"measurement": "Monocyte migration (% of input cells)", "setting": "[9]; 10 nM galectin-3, subsequent experiments n=21, control 4.26±1.3%, p<0.001", "value": "7.01±2.1", "unit": "%"}, {"measurement": "Monocyte migration (% of input cells)", "setting": "[9]; 100 nM galectin-3 in lower chamber, n=4 experiments, diluent control 3.54±2.2%", "value": "6.25±1.3", "unit": "%"}, {"measurement": "Monocyte migration (% of input cells)", "setting": "[9]; 300 nM galectin-3 in lower chamber, n=4 experiments, diluent control 3.54±2.2%", "value": "9.8±0.33", "unit": "%"}, {"measurement": "Monocyte migration with galectin-3 in both chambers", "setting": "[9]; 1 μM galectin-3 added to both chambers", "value": "no significant increase in monocyte migration over the background"}, {"measurement": "Monocyte migration (% of input cells)", "setting": "[9]; 1 μM galectin-3 in lower chamber, n=4 experiments, diluent control 3.54±2.2%", "value": "12.4±1.2", "unit": "%"}, {"measurement": "Effect on monocyte migration compared with MCP-1", "setting": "[9]; 1 μM galectin-3 vs MCP-1 at 100 ng/ml (11.6 nM)", "value": "comparable to that of human recombinant MCP-1"}, {"measurement": "Monocyte migration (% migrated cells of the total cells)", "setting": "[9]; checkerboard: galectin-3 above 0 nM, below 10 nM", "value": "8.66 ± 0.22", "unit": "%"}, {"measurement": "Monocyte migration (% migrated cells of the total cells)", "setting": "[9]; checkerboard: galectin-3 above 0 nM, below 100 nM", "value": "9.96 ± 0.72", "unit": "%"}, {"measurement": "Monocyte migration (% migrated cells of the total cells)", "setting": "[9]; checkerboard: galectin-3 above 0 nM, below 1000 nM", "value": "13.1 ± 1.33", "unit": "%"}, {"measurement": "Monocyte migration (% migrated cells of the total cells)", "setting": "[9]; checkerboard: galectin-3 above 10 nM, below 0 nM", "value": "7.55 ± 0.79", "unit": "%"}, {"measurement": "Monocyte migration (% migrated cells of the total cells)", "setting": "[9]; checkerboard: galectin-3 above 10 nM, below 10 nM", "value": "8.88 ± 1.09", "unit": "%"}, {"measurement": "Monocyte migration (% migrated cells of the total cells)", "setting": "[9]; checkerboard: galectin-3 above 10 nM, below 100 nM", "value": "9.23 ± 2.23", "unit": "%"}, {"measurement": "Monocyte migration (% migrated cells of the total cells)", "setting": "[9]; checkerboard: galectin-3 above 10 nM, below 1000 nM", "value": "11.5 ± 3.49", "unit": "%"}, {"measurement": "Monocyte migration (% migrated cells of the total cells)", "setting": "[9]; checkerboard: galectin-3 above 100 nM, below 0 nM", "value": "10.7 ± 0.86", "unit": "%"}, {"measurement": "Monocyte migration (% migrated cells of the total cells)", "setting": "[9]; checkerboard: galectin-3 above 100 nM, below 10 nM", "value": "11.4 ± 2.11", "unit": "%"}, {"measurement": "Monocyte migration (% migrated cells of the total cells)", "setting": "[9]; checkerboard: galectin-3 above 100 nM, below 100 nM", "value": "10.5 ± 2.10", "unit": "%"}, {"measurement": "Monocyte migration (% migrated cells of the total cells)", "setting": "[9]; checkerboard: galectin-3 above 100 nM, below 1000 nM", "value": "12.5 ± 2.87", "unit": "%"}, {"measurement": "Monocyte migration (% migrated cells of the total cells)", "setting": "[9]; checkerboard: galectin-3 above 1000 nM, below 0 nM", "value": "3.30 ± 2.82", "unit": "%"}, {"measurement": "Monocyte migration (% migrated cells of the total cells)", "setting": "[9]; checkerboard: galectin-3 above 1000 nM, below 10 nM", "value": "3.25 ± 3.11", "unit": "%"}, {"measurement": "Monocyte migration (% migrated cells of the total cells)", "setting": "[9]; checkerboard: galectin-3 above 1000 nM, below 100 nM", "value": "4.55 ± 3.69", "unit": "%"}, {"measurement": "Monocyte migration (% migrated cells of the total cells)", "setting": "[9]; checkerboard: galectin-3 above 1000 nM, below 1000 nM", "value": "3.50 ± 2.41", "unit": "%"}, {"measurement": "Nature of the effect on monocytes in vitro", "setting": "[9]; high concentrations (1 μM)", "value": "chemotactic"}, {"measurement": "Nature of the effect on monocytes in vitro", "setting": "[9]; low concentrations (10 and 100 nM)", "value": "chemokinetic"}, {"measurement": "Induction of Ca2+ influx in human monocytes", "setting": "[10]; 1 μM galectin-3", "value": "induced a Ca^2+ influx"}, {"measurement": "Extent of Ca2+ influx compared with MCP-1", "setting": "[10]; 1 μM galectin-3 vs 100 ng/ml MCP-1, three separate experiments", "value": "lower than that by the chemokine"}, {"measurement": "Cross-desensitization of Ca2+ influx with monocyte-reactive chemokines", "setting": "[10]; 1 μM galectin-3 vs MCP-1, MIP-1α, SDF-1α at 100 ng/ml, either order", "value": "no cross-desensitization"}, {"measurement": "Induction of Ca2+ influx in human monocytes", "setting": "[10]; galectin-3 concentrations lower than 1 μM", "value": "not"}]}]}
